Calls of active or inactive are those of the source. The calls are words filed in the database; no cut-off is given here.
Experiments:
COLO 201 = assay: Antiproliferative activity against human COLO201 cells assessed as inhibition of cell viability for 96 hrs by cell titre glo luminescence assay; assay type: functional, cell-based; conditions: COLO 201, 96 h
COLO 205 = assay: Antiproliferative activity against human COLO205 cells assessed as inhibition of cell viability for 96 hrs by cell titre glo luminescence assay; assay type: functional, cell-based; conditions: COLO 205, 96 h
HCT-116 = assay: Antiproliferative activity against human HCT-116 cells assessed as inhibition of cell viability for 96 hrs by cell titre glo luminescence assay; assay type: functional, cell-based; conditions: HCT-116, 96 h
HT-29 = assay: Antiproliferative activity against human HT-29 cells assessed as inhibition of cell viability for 96 hrs by cell titre glo luminescence assay; assay type: functional, cell-based; conditions: HT-29, 96 h
KURAMOCHI = assay: Antiproliferative activity against human KURAMOCHI cells assessed as inhibition of cell viability for 96 hrs by cell titre glo luminescence assay; assay type: functional, cell-based
OVCAR-3 = assay: Antiproliferative activity against human OVCAR-3 cells assessed as inhibition of cell viability for 96 hrs by cell titre glo luminescence assay; assay type: functional, cell-based; conditions: OVCAR-3, 96 h
OVCAR-5 = assay: Antiproliferative activity against human OVCAR-5 cells assessed as inhibition of cell viability for 96 hrs by cell titre glo luminescence assay; assay type: functional, cell-based; conditions: OVCAR-5, 96 h
SK-OV-3 = assay: Antiproliferative activity against human SK-OV-3 cells assessed as inhibition of cell viability for 96 hrs by cell titre glo luminescence assay; assay type: functional, cell-based; conditions: SK-OV-3, 96 h
MDA-MB-231 = assay: Antiproliferative activity against human MDA-MB-231 cells assessed as inhibition of cell viability for 96 hrs by cell titre glo luminescence assay; assay type: functional, cell-based; conditions: MDA-MB-231, 96 h
Monoglyceride lipase [1] = target: T1, Monoglyceride lipase (Homo sapiens, UniProt Q99685)
T1 sequence (Q99685 whole entry): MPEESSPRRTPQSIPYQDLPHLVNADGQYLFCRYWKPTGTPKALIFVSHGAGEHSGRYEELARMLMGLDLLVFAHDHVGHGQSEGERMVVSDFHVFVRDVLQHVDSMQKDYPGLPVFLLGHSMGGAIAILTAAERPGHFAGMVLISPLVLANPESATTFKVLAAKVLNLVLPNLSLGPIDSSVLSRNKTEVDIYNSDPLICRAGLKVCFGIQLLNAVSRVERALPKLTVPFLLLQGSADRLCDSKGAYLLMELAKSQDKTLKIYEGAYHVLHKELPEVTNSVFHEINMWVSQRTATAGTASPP
Description: Inhibition of human recombinant MAGL using 4-NPA as substrate by microplate reader method

Monoglyceride lipase [2] = target: T1, Monoglyceride lipase; remark: listed apart in the source
Description: Inhibition of human recombinant MAGL assessed as dissociation constant using 4-NPA as substrate

[3] = target: T2, Monoglyceride lipase (Homo sapiens) (UniProt Q99685); conditions: dose 320.0 nM, time 60.0 min
T2 sequence (whole entry): T1 sequence (Q99685 whole entry)

[4] = target: T2, Monoglyceride lipase (Homo sapiens); conditions: dose 8.0 nM, time 60.0 min

O=C(c1ccc(Sc2cccc(OC(F)(F)F)c2)cc1)C1CCN(C(=O)c2cc(O)ccc2F)CC1
IC50 (COLO 201): 3.3 µM
IC50 (COLO 205): 2.2 µM
IC50 (HCT-116): 3.4 µM
IC50 (HT-29): 2.5 µM
IC50 (KURAMOCHI): 3.7 µM
IC50 (OVCAR-3): 8.6 µM
IC50 (OVCAR-5): 0.78 µM
IC50 (SK-OV-3): 4.4 µM
IC50 (MDA-MB-231): 10 µM
IC50 (Monoglyceride lipase [1]): 0.00186 µM
Ki (Monoglyceride lipase [2]): 0.00112 µM
inhibition [3]: Active
inhibition [4]: Active

O=C(c1ccc(Sc2cccc(C(F)(F)F)c2)cc1)C1CCN(C(=O)c2cc(O)ccc2F)CC1
IC50 (COLO 201): 2.9 µM
IC50 (COLO 205): 3.3 µM
IC50 (HCT-116): 3.3 µM
IC50 (HT-29): 8.4 µM
IC50 (KURAMOCHI): 3.3 µM
IC50 (OVCAR-3): 5.7 µM
IC50 (OVCAR-5): 0.32 µM
IC50 (SK-OV-3): 4.4 µM
IC50 (MDA-MB-231): 5.4 µM

O=C(c1ccc(Cl)cc1)C1CCN(C(=O)c2cccc(O)c2)CC1
IC50 (COLO 201): 83 µM
IC50 (COLO 205): 79 µM
IC50 (HCT-116): 86 µM
IC50 (HT-29): 6.9 µM
IC50 (KURAMOCHI): 75 µM
IC50 (OVCAR-3): 93 µM
IC50 (OVCAR-5): 10 µM
IC50 (SK-OV-3): 84 µM
IC50 (MDA-MB-231): 71 µM

O=C(c1ccc(Sc2cccc(Cl)c2)cc1)C1CCN(C(=O)c2cc(O)ccc2F)CC1
IC50 (COLO 201): 8.7 µM
IC50 (COLO 205): 8.7 µM
IC50 (HCT-116): 7.6 µM
IC50 (HT-29): 9 µM
IC50 (KURAMOCHI): 7 µM
IC50 (OVCAR-3): 12 µM
IC50 (OVCAR-5): 3.7 µM
IC50 (SK-OV-3): 8.8 µM
IC50 (MDA-MB-231): 2.7 µM
IC50 (Monoglyceride lipase [1]): 0.0015 µM
Ki (Monoglyceride lipase [2]): 0.00114 µM
inhibition [3]: Active
inhibition [4]: Active

Reference: ChEMBL document CHEMBL4831497, “Monoacylglycerol lipase (MAGL) inhibitors based on a diphenylsulfide-benzoylpiperidine scaffold” (Eur J Med Chem, 2021)
